# In patent US12521423B2, “Method and composition for treating gastrointestinal inflammatory disorders” (THE REGENTS OF THE UNIVERSITY OF COLORADO, a body corporate, priority 2019, dated 2026):
# Where two headings read alike, the source gives them in different places.
# Columns and labels:
# T84 cells [1] = experiment: HPLC adenylate and energy metabolite analyses of treated T84 cells; type: cell-based
# T84 cells [2] = experiment: calcium switch assay / transepithelial resistance of T84 monolayers; type: cell-based
# Procedure: This model utilizes transient divalent cation chelation to disrupt epithelial tight junctions in fully confluent cells.
# Briefly, polarized, high-resistant (>1,500 Ω·cm2) T84 monolayers on 0.33 cm^2 (non-metabolomic) or 5 cm^2 (metabolomics) transwell inserts (Costar, 0.4 μm) were equilibrated for 1 h in HBSS in the case of non-metabolomic analyses and approx. 20 h in the case of metabolomic analyses. All experiments were performed at 37° C. and transepithelial resistance monitored using a voltohmeter (World Precision Instruments EVOM). Extracellular Ca^2+ was chelated via washing and incubation with Ca^2+-free HBSS supplemented with 2 mM EDTA for 5 min, after which the samples were washed into HBSS with normal calcium (1.8 mM).
# To our surprise, this analysis identified an inverse correlation between Hpx and barrier, with Hpx spiking from approx. 1 to 3.5 μM (p<0.004) at the barrier nadir. […] To extend this observation, T84 cells were supplemented with Hpx (range 0.1-1 mM, 20 h) and a calcium switch assay performed.
# Allopurinol (Allo) is a structural analog of hypoxanthine commonly used to treat gout. The drug is metabolized into oxipurinol by xanthine oxidase (XO), which in turn inhibits XO and decreases uric acid. Allopurinol was employed as a competitive substrate/inhibitor for hypoxanthine-guanine phosphoribosyl transferase (HGPRT) to assess the contribution of Hpx salvage to the barrier formation process using the calcium switch assay and transepithelial resistance measurements described above.
# [3] = test system: colonic adenylate and energy metabolism; conditions: Hpx 1 mM enema 5 and 18 h before sacrifice
# Procedure: To assess the influence of purine supplementation on colonic adenylate and energy metabolism, MDP was depleted by treating mice with streptomycin, and reconstituted by administration of Hpx (1 mM) by enema at time points of 5 and 18 h before sacrifice and distal colon tissue metabolite extracts analyzed.
# [4] = 10 mM Hpx in drinking water
# Procedure: (§1) To validate the role of exogenous purine supply on colonic function, streptomycin-treated mice (S-0 mM HPX-DSS) were supplemented with 1 and 5 mM Hpx (S-1 mM HPX-DSS and S-5 mM HPX-DSS) in their drinking water and submitted to DSS colitis.
# DSS colitis = conditions: for body weight lost: no Hpx ~9; for sterility index: from 0; for tissue AEC: from 0.30; for BiP: from 0.41; for sterile inner mucin layer: from ~1; for colon length: no Hpx ~5.75
# Procedure: as §1
# T84 cells [5] = conditions: 1 mM hypoxanthine, 88 h, p<0.001
# Procedure: We also employed a scratch wound assay to assess the influence of Hpx supplementation on cellular restitution. T84 cells were plated at 35,000 cells per well on a 96-well ImageLock tissue culture plate (Essen Bioscience Inc.) and incubated in standard conditions until a confluent cell monolayer formed (˜24 h). Precise and reproducible wounds were made in all wells with a WoundMaker (Essen Bioscience Inc.). […] Initial images were taken immediately after wounding at 10× using the IncuCyte live-cell imaging (Essen Bioscience Inc.), and then every 2 h over the course of 88 h in culture. Relative wound closure (%) was quantified for every image using the relative wound density metric, a measure of cell density in the wound area relative to the cell density outside of the wound area.
# T84 cells [6] = conditions: 1 mM Hpx
# Procedure: To examine the impact of Hpx supplementation on epithelial function during physiologically-relevant metabolic stress, T84 cells were exposed to hypoxia (1% O2, 40 h) in the presence and absence of 1 mM Hpx, and barrier and adenylate metabolites monitored.
# murine microbiota = experiment: HPLC analyses of murine fecal extracts after streptomycin treatment; type: in vivo, mice
# Excerpt: Analyses of soluble, extracellular murine fecal metabolite extracts by HPLC identified substantial levels of available purine (˜550 nmol/g), primarily as hypoxanthine (Hpx, ˜350 nmol/g). The production of purines by the microbiota was verified by fecal extract analyses of streptomycin-treated mice, which decreased the available fecal purine more than 80%, lowering available Hpx to <50 nmol/g.
# [7] = test system: total colonic purine levels; experiment: colon tissue metabolites at baseline in CR mice, streptomycin treatment and K12 colonization; type: in vivo; conditions: no DSS
# Excerpt: (§2) Bacterial supply of purine was depleted in CR mice (CR-CNTL) via streptomycin treatment (S-CR-CNTL), and reconstituted by colonization with streptomycin-resistant K12 (S-CR-K12).
# DSS-induced colitis = experiment: DSS colitis in CR mice, streptomycin treatment and K12 colonization; conditions: colon tissue
# Excerpt: as §2
# Visualization of the colon tissues by hematoxylin and eosin (H&E) staining in the CR mouse groups reveal two key differences between tissue with and without MDP supply. […] These phenotypes correlate with the adenylate energy charge (AEC, (ATP+0.5×ADP)/(ATP+ADP+AMP))—a commonly used index used to indicate cellular energy status that is defined by relative adenine nucleotide levels, providing a more functionally relevant indicator of energy balance than ATP and/or PCr alone.
# Given the association between the AEC and cellular function and the metabolic data indicative of MDP promoting flux through ATP, the colon tissue analyses were extended to Ki67 as marker of proliferation.
# Due to the importance of ATP supply for ER function, the colon tissue immunofluorescent analyses were extended to BiP as a marker of ER stress and the UPR.
# Goblet cells require robust ER function for mucin protein folding and dimerization, prompting analyses of the impact of MDP on colonic mucin production and secretion. To observe mucin production tissue sections were stained with alcian blue. […]
# [8] = subconfluent T84 cells, Allo 20 h
smiles,measurement,setting,value
"Nc1ncnc2c1ncn2[C@@H]1O[C@H](COP(=O)(O)OP(=O)(O)O)[C@@H](O)[C@H]1O [ADP, adenosine diphosphate]",Hpx increase in T84 IECs,T84 cells [1]; 100 μM ADP,~15 fold
"Oc1ncnc2[nH]ncc12 [Allo, Allopurinol]",T84 cell barrier formation,"T84 cells [2]; Allo 1 mM, p<0.001",significantly attenuated
same,"Adenine, IMP, and UA levels",T84 cells [1]; [8],undetectable to trace levels
same,TAE,T84 cells [1]; [8],corresponding increase
same,Xan and Ino levels,T84 cells [1]; [8],small increases
same,PCr level,"T84 cells [1]; subconfluent T84 cells, Allo 20 h, from approx. 20",~27 µM
same,Hpx level,"T84 cells [1]; subconfluent T84 cells, Allo 20 h, from approx. 400",~250 nM
same,Ado level,"T84 cells [1]; subconfluent T84 cells, Allo 20 h, from trace/undetectable",approx. 400 nM
"O=c1[nH]cnc2nc[nH]c12 [Hpx, hypoxanthine]",colonic AMP,[3]; from 58,84 nmol/g
same,colonic ADP,[3]; from 80,123 nmol/g
same,colonic ATP,[3]; from 192,154 nmol/g
same,total colonic purine,[3]; from 490,560 nmol/g
same,colonic phosphocreatine (PCr),[3]; from 3700,2000 nmol/g
same,urination,[4],excessively urinate
same,body weight lost,DSS colitis; 1 mM Hpx in drinking water,~3%
same,sterility index,DSS colitis; 1 mM Hpx,0.56
same,tissue proliferation,"DSS colitis; 1 mM Hpx, from 0.22",0.54 Ki67/DAPI
same,tissue AEC,DSS colitis; 1 mM Hpx,0.38
same,BiP,DSS colitis; 1 mM Hpx,0.23 BiP/DAPI
same,sterile inner mucin layer,DSS colitis; 1 mM Hpx,~9 μm
same,colon length,DSS colitis; 1 mM Hpx,~6.3 cm
same,body weight lost,DSS colitis; 5 mM Hpx in drinking water,~7%
same,tissue proliferation,"DSS colitis; 5 mM Hpx, control 0.22",0.19 Ki67/DAPI
same,sterility index,DSS colitis; 5 mM Hpx,0.78
same,tissue AEC,DSS colitis; 5 mM Hpx,0.42
same,BiP,DSS colitis; 5 mM Hpx,0.24 BiP/DAPI
same,sterile inner mucin layer,DSS colitis; 5 mM Hpx,~11 μm
same,colon length,DSS colitis; 5 mM Hpx,~6.5 cm
same,epithelial cell population and mucin production (H&E),DSS colitis; Hpx supplementation,recovered
same,"goblet cell mucin production, thecal volumes",DSS colitis; Hpx supplementation,increased thecal volumes
same,barrier throughout the course of the experiment,"T84 cells [2]; 300 μM and 1 mM Hpx, p<0.03",improved barrier
same,cellular barrier and barrier reformation (calcium switch),"T84 cells [2]; Hpx pre-loading 0.1-1 mM, 20 h",protective of cellular barrier and promoted barrier reformation in a dose-responsive manner
same,increase of intracellular Hpx levels,"T84 cells [1]; T84 cells, Hpx 0.1-1 mM, 20 h pre-exposure",up to 100 fold
same,increase of epithelial wound closure rate following scratching,T84 cells [5],approx. 1.5 fold
same,total available energy (TAE) under hypoxia,T84 cells [6]; hypoxia 1% O2,significant recovery
same,increase of overall barrier resistance above control conditions,"T84 cells [6]; hypoxia 1% O2, 40 h",approx. 1.3 fold
Nc1ncnc2c1ncn2[C@@H]1O[C@H](CO)[C@@H](O)[C@H]1O [adenosine],Hpx increase in T84 IECs,T84 cells [1]; 1 mM adenosine,over 150 fold
[H]/N=C(/N)N[C@H]1[C@H](O)[C@@H](O)[C@H](O[C@@H]2O[C@@H](C)[C@](O)(C=O)[C@H]2O[C@@H]2O[C@@H](CO)[C@H](O)[C@@H](O)[C@@H]2NC)[C@@H](N/C(N)=N\[H])[C@@H]1O [streptomycin],measurable fecal hypoxanthine,murine microbiota; 1 day after streptomycin treatment,nearly complete loss
same,available fecal Hpx,murine microbiota; streptomycin-treated mice,< 50 nmol/g
same,decrease of available fecal purine,murine microbiota; streptomycin-treated mice,more than 80%
same,colon tissue Xan,[7]; CR-CNTL 207,69 nmol/g
same,total colonic purine levels,[7]; CR-CNTL 809,630 nmol/g
same,goblet cell thecal volumes (alcian blue),DSS-induced colitis,broad decline
same,adenylate energy charge (AEC),DSS-induced colitis; CR-CNTL-DSS 0.51,0.44
